Data reported in patent US20130052259A1, “LIPOSOMES COMPRISING AMPHIPATHIC DRUGS AND METHOD FOR THEIR PREPARATION” (priority 2010, published 2013).
≈ marks a conversion by molar mass, not a printed value.

Assays:
[1] = Physicochemical properties of VCR and TPT
Excerpt: The need to develop one liposome that includes two drugs at a specific predefined mole ratio required optimization of the loading conditions and “crosstalk” with the drugs. For this, physiochemical characterization of the two drugs is required.

[2] = in vivo; conditions: nude, mouse, plasma, iv
[3] = Pharmacokinetics in tumor-bearing nude mice after i.v. administration; conditions: eight hours post injection, based on AUC value
[4] = In vitro release of drugs from nanoliposomes in adult bovine serum at 37° C.; type: in vitro ADME; conditions: drug encapsulated in nSSL
Procedure: For studying the effect of biological fluids, drug loaded nSSLs were incubated up to 96 h at 37° C. in adult bovine serum (Biological Industries, Beit Haemek, Israel).

[5] = tested on: Daoy medulloblastoma cells; assay: MTT cytotoxicity and median-effect (CI) analysis, Daoy; conditions: for Fractional kill (fa): 72 h MTT; for Dx (Dx1, Dx2, Dx12: dose for effect level fa): doses of Table 1 (ng/ml);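 on all read-outs here: drugs applied at fixed ratios over eight concentrations for 72 h, survival expressed against untreated control wells, affected fraction (fa) derived per well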
Procedure: Human medulloblastoma (Daoy) cells, colon cancer (SW480) cells and neuroblastoma (NB-EB) cells were exposed to fixed ratios at eight concentrations of drugs for 72 hours along the profile of the most cytotoxic drug. Viable cells were quantified using standard MTT assay (T. Mosmann, Rapid colorimetric assay for cellular growth and survival: application to proliferation and cytotoxicity assays. J Immunol Methods 65(1-2) (1983) 55-63).
Test data were converted to a percentage mean cell survival value relative to untreated control wells. The fraction of affected cells (fa) was subsequently determined for each well.
The median effect analysis uses the combination index (CI) value as a quantitative indicator of the degree of synergy or antagonism. Using this analysis method, CI=1.0 reflects additive activity, CI>1 signifies antagonism, and CI<1.0 indicates synergy.
Firstly, in vitro cytotoxicity of VCR, TPT and their combinations was evaluated using the median-effect analysis of Chou et al [T. C. […] The selection of this drug interaction analysis method was based on its suitability for assessing whether drugs interact synergistically (CI<1.0), additively (CI f 1.0), or antagonistically (CI>1.0) as a function of drug concentration for different fixed drug/drug ratios.

[6] = Maximum tolerated dose (MTD); design: species or system mice; conditions: mouse, in vivo; ≦15% body weight loss nadir lasting ≦2 days
Procedure: The MTD is determined in clinical trials by testing increasing doses on different groups of people until the highest dose with acceptable side effects is found. For each drug, the MTD as determined in clinical trials is then available via publicly available sources such as SciFinder which is the On Line search engine of The American Chemical Society for various information including MTD (in animals as well as in humans). […] In this context, the “MTD ratio” between two drugs is the ratio between the MTD determined for each drug.
Tumor volume, survival, and body weight were monitored 2-3 times per week.

[7] = tested on: SW480 (colon) tumors; assay: Efficacy against SW480 (colon) tumors in nude mice, Kaplan-Meier; conditions: SW480 tumors s.c., i.v. at days 17, 23 and 29
Procedure: Nine mice were treated in each group. All mice received injections through the tail vain at days 17, 23 and 29.
Approximately 4 million Daoy and SW480 tumor cells were inoculated subcutaneously (s.c.) in the back of 5 weeks old NUDE-Hsd:Athymic mice. Tumor weights were determined according to the equation (length×width^2)/2 using direct caliper measurements (D. M. Euhus, C. Hudd, M. C. LaRegina, F. E. Johnson, Tumor measurement in the nude mouse. J Surg Oncol 31(4) (1986) 229-234; M. M. Tomayko, C. P. Reynolds, Determination of subcutaneous tumor size in athymic (nude) mice. Cancer Chemother Pharmacol 24(3) (1989) 148-154).
The statistical significance between different treatment groups was determined using Mood's median test [A. M. Mood, Introduction to the theory of statistics, McGraw-Hill, New York, 1950.].

## CC[C@@]1(O)C(=O)OCc2c1cc1n(c2=O)Cc2cc3c(CN(C)C)c(O)ccc3nc2-1 [Topotecan (TPT), Topotecan]
[1]
  Non-polar/polar surface area ratio: 2.81
  pKa: 7.65
[1]; pH 6, aqueous buffer
  solubility: 3600 µM (≈ 1520 µg/mL)
[1]; pH 8, aqueous buffer
  solubility: 200 µM (≈ 84.3 µg/mL)
[2]
  AUC: 2700 ± 910 ng·h/mL
  Cmax: 3980 ± 1040 ng/mL
  MRT: 0.6 ± 0.07 h
  clearance: 1.28 mL/min
  half-life: 61.8 min
[3]
  lactone ratio of TPT: 9%

## CC[C@]1(O)C[C@H]2CN(CCc3c([nH]c4ccccc34)[C@@](C(=O)OC)(c3cc4c(cc3OC)N(C=O)[C@H]3[C@@](O)(C(=O)OC)[C@H](OC(C)=O)[C@]5(CC)C=CCN6CC[C@]43[C@@H]65)C2)C1 [Vincristine (VCR), Vincristine]
[4]
  release kinetics order: zero-order kinetics
[1]
  logP: 2.97
  pKa: 7.64
[1]; pH 6
  logD: 1.2
[1]; pH 6, aqueous buffer
  solubility: 300 µM (≈ 247 µg/mL)
[1]; pH 8
  logD: 2.81
[1]; pH 8, aqueous buffer
  solubility: 10 µM (≈ 8.25 µg/mL)
[5]; Daoy cells
  m (slope, Hill-type coefficient of the dose-effect curve): m: 1.926
[5]; Homo sapiens, Daoy, read-out: Dm (dose required to produce the median-effect)
  IC50: 5.51 ng/mL (≈ 6.67 nM)
[5]; dose 1 ng/ml
  Log [1/(1/fa − 1)]: −1.43
  Fractional kill (fa): 0.04
[5]; dose 2 ng/ml
  Log [1/(1/fa − 1)]: −0.93
  Fractional kill (fa): 0.11
[5]; dose 4 ng/ml
  Log [1/(1/fa − 1)]: −0.36
  Fractional kill (fa): 0.30
[5]; dose 8 ng/ml
  Log [1/(1/fa − 1)]: 0.65
  Fractional kill (fa): 0.82
[5]; dose 24 ng/ml
  Log [1/(1/fa − 1)]: 1.07
  Fractional kill (fa): 0.92
[5]; fa 0.1
  Dx (Dx1, Dx2, Dx12: dose for effect level fa): 1.76
[5]; fa 0.2
  Dx (Dx1, Dx2, Dx12: dose for effect level fa): 2.68
[5]; fa 0.3
  Dx (Dx1, Dx2, Dx12: dose for effect level fa): 3.55
[5]; fa 0.4
  Dx (Dx1, Dx2, Dx12: dose for effect level fa): 4.46
[5]; fa 0.5
  Dx (Dx1, Dx2, Dx12: dose for effect level fa): 5.50
[5]; fa 0.6
  Dx (Dx1, Dx2, Dx12: dose for effect level fa): 6.79
[5]; fa 0.7
  Dx (Dx1, Dx2, Dx12: dose for effect level fa): 8.55
[5]; fa 0.8
  Dx (Dx1, Dx2, Dx12: dose for effect level fa): 11.31
[5]; fa 0.9
  Dx (Dx1, Dx2, Dx12: dose for effect level fa): 17.22
[6]
  MTD: 1.5 mg/kg
[2]
  AUC: 2510 ± 460 ng·h/mL
  Cmax: 1370 ± 340 ng/mL
  MRT: 1.73 ± 0.3 h
  clearance: 0.273 mL/min
  half-life: 125 min

## Topotecan [Topotecan (TPT)]
[4]
  release kinetics order: first-order kinetics followed by zero-order kinetics
[5]; Daoy cells
  m (slope, Hill-type coefficient of the dose-effect curve): m: 1.663
[5]; Daoy cells, […]
  Dm (dose required to produce the median-effect): Dm: 81.23 ng/ml
[5]; dose 40 ng/ml
  Log [1/(1/fa − 1)]: −0.64
  Fractional kill (fa): 0.18
[5]; dose 60 ng/ml
  Log [1/(1/fa − 1)]: −0.08
  Fractional kill (fa): 0.46
[5]; dose 80 ng/ml
  Log [1/(1/fa − 1)]: 0.04
  Fractional kill (fa): 0.52
[5]; dose 200 ng/ml
  Log [1/(1/fa − 1)]: 0.59
  Fractional kill (fa): 0.80
[5]; dose 400 ng/ml
  Log [1/(1/fa − 1)]: 1.15
  Fractional kill (fa): 0.93
[5]; fa 0.1
  Dx (Dx1, Dx2, Dx12: dose for effect level fa): 21.67
[5]; fa 0.2
  Dx (Dx1, Dx2, Dx12: dose for effect level fa): 35.29
[5]; fa 0.3
  Dx (Dx1, Dx2, Dx12: dose for effect level fa): 48.80
[5]; fa 0.4
  Dx (Dx1, Dx2, Dx12: dose for effect level fa): 63.65
[5]; fa 0.5
  Dx (Dx1, Dx2, Dx12: dose for effect level fa): 81.23
[5]; fa 0.6
  Dx (Dx1, Dx2, Dx12: dose for effect level fa): 103.66
[5]; fa 0.7
  Dx (Dx1, Dx2, Dx12: dose for effect level fa): 135.22
[5]; fa 0.8
  Dx (Dx1, Dx2, Dx12: dose for effect level fa): 186.99
[5]; fa 0.9
  Dx (Dx1, Dx2, Dx12: dose for effect level fa): 304.53
[7]; listed as Free TPT
  therapeutic efficacy (Kaplan-Meier, tumor ≧1000 mg as endpoint): inferior to the liposomal formulations
[7]; listed as free TPT
  therapeutic efficacy (Kaplan-Meier, tumor ≧1000 mg as endpoint): more efficacious for colon cancer
